Where “and” joins values, the source holds several entries; their conditions need not be identical. Equal values may be shown once. Entries after “also recorded” stand apart in the source; their conditions may differ. Read-outs that look alike come from different tables or passages of the source.
Columns and labels:
[1] = tested on: HCV genotype Ib replicon (I389luc-ubi-neo/NS3-3′/ET) in Huh-luc/neo-ET cells; format: cell-based
Protocol: (§1) The anti-viral efficacy and cellular toxicity of non-transfected antimiR oligonucleotide in combination with approved and experimental anti-HCV therapeutics (e.g. NM283, 2′-C-methylcytidine, and/or VX-222) (or other NS5B polymerase inhibitors) was determined in the reporter cell line Huh-luc/neo-ET. This cell line harbors the persistently replicating I389luc-ubi-neo/NS3-3′/ET replicon containing the firefly luciferase gene-ubiquitin-neomycin phosphotransferase fusion protein and EMCV IRES driven NS3-5B HCV coding sequences containing the ET tissue culture adaptive mutations (E1202G, T1208I, and K1846T). Eight dilutions of non-transfected antimiR oligonucleotide (bracketing the calculated EC50) were evaluated in triplicate on duplicate sets of three plates with five dilutions of each of the control compounds (bracketing the calculated EC50). One set of plates was used for the determination of cellular toxicity and the other set of plates was used for the determination of anti-viral efficacy. The efficacy and toxicity results was quantified with firefly luciferase activity and XTT dye reduction, respectively, and the results of the assay is imported into the Prichard and Shipman MacSynergy II software program. The MacSynery II analysis includes calculation of the dose response of the two (or more) compounds when used alone followed by calculation of the expected additive level of antiviral inhibition or toxicity when the compounds are used together based on the individual dose response curves. The expected level of activity at each of the concentration data points was compared to the experimentally determined antiviral activity in the assay. The expected activity was subtracted from the realized activity, yielding a negative, zero or positive value. These values are plotted as a three dimensional representation of the data and the result is reported as a two-factor value, expressing the combined average above the expected level of activity (synergy volume) and the combined average below the expected level of activity (antagonism volume). Combination analysis was performed two or more times for each pair of test compound and control substance.
(§2) The reporter cell line Huh-luc/neo-ET was obtained from Dr. Ralf Bartenschlager (Department of Molecular Virology, Hygiene Institute, University of Heidelberg, Germany) by ImQuest BioSciences. This cell line harbors the persistently replicating 1389luc-ubi-neo/NS3-3′IET replicon containing the firefly luciferase gene-ubiquitinneomycin phosphotransferase fusion protein and EMCV IRES driven NS3-5B HCV coding sequences containing the ET tissue culture adaptive mutations (E 1202G, T12081, and KI846T). A stock culture of the Huh-luc/neo-ET was expanded by culture in DMEM supplemented with 10% FBS, 2 mM glutamine, penicillin (100 IU/mL)/streptomycin (100 f·Ig/mL) and IX nonessential amino acids plus I mg/ml G418. Prior to plating, the cells were split 1:4 and cultured for two passages in the same medium plus 250 f·Ig/mL G418. The cells were treated with trypsin and enumerated by staining with trypan blue and seeded into 96-well tissue culture plates at a cell culture density 5.0×10^3 cells per well in a volume of 85 f·IL per well and incubated at […] in an environment of 5% CO2 for 24 hours. Six plates were established for the determination of combination efficacy (EC50) and cytotoxicity (TC50) for each of the compound combinations (three plates each for efficacy and toxicity). Following the 24 hour incubation, eight 2-fold serial dilutions of SPC3649 in cell culture medium without G418 were prepared (final in well high test concentration of 1.20 μM to 2.40 μM) and added to the cells and five 2-fold or 5-fold serial dilutions of control compounds in cell culture medium without G418 were prepared and added to the cells.

[2] = tested on: Huh-luc/neo-ET cells; assay: Cellular toxicity by XTT dye reduction in Huh-luc/neo-ET cells
Protocol: as §1
as §2, with “Following the 24 hour incubation, eight 2-fold serial dilutions of SPC3649 in cell culture medium without G418 were prepared (final in well high test concentration of 1.20 μM to 2.40 μM) and added to the cells and five 2-fold or 5-fold serial dilutions of control compounds in cell culture medium without G418 were prepared and added to the cells.” left out

[3] = tested on: Huh-luc/neo-ET HCV genotype Ib replicon cells; format: cell-based; conditions: selection with G418, 28 days
Protocol: Cell culture and Assay setup: The reporter cell line Huh-luc/neo-ET was obtained and prepare as described previously. Cells were plated into 10 cm tissue culture dishes at a density of 3×10^5 cells per plate in culture medium containing 250 μg/ml G418 and incubated for 24 hours at 37° C. in an environment of 5% C02. Following the 24 hour incubation, dilutions of SPC3649, SPC4729, or telaprevir were prepared in cell culture medium (as above) with 750 μg/ml G418. Each of the dilutions was added to duplicate plates and the plates were incubated at 37° C. in an environment of 5% CO^2. Two additional plates received cell culture medium with 750 μg/ml G418 as a no-treatment control. […] The final concentration of SPC4729 was 10.0 μM. […] Following 28 days of passage, one set of dishes was stained with crystal violet and the other set of plates was utilized for expansion and establishment of resistant cell culture stocks.
Huh-luc/neo-ET HCY genotype Ib replicon cells were cultured under selective pressure in the presence of 750 μg/mL G4 I8 with and without four independent fixed concentrations of SPC3649 anti-miR oligonucleotide, or telaprevir, or one concentration of scrambled oligonucleotide SPC4729 for 28 days in tissue culture plates. Duplicate tissue culture dishes were established and maintained for each culture condition. Medium was replaced bi-weekly during the 28 days of culture and the cells were split at the time of medium replenishment to maintain a confluent cell culture monolayer. Following four weeks in culture, cells were either fixed with methanol and stained with crystal violet or expanded for subsequent phenotypic and genotypic characterization.

[4] = tested on: HCV genotype 1b replicon NS3 A156T; format: cell-based; conditions: EC50 mutant / EC50 wild-type; mean of two experiments (individual values)
Protocol: (§3) The in vitro antiviral of miravirsen was evaluated against wild-type HCV genotype 1b replicon and HCV genotype 1b replicons constructed to contain key amino acid substitutions in NS3 protease (A156T, R155K), NS5B polymerase (S282T, M423I) and NS5A protein (Y93H) in transient transfection assays utilizing Huh 7 cells. […] Huh 7 cells were transfected with either the wild-type or the mutant RNA constructs by electroporation. Luciferase activity was measured 72 hours after compound treatment and EC50 values determined from dose-response curves. Fold resistance was expressed as the ratio of the EC50 for mutant HCV replicon to the EC50 for wild-type HCV replicon.
(§4) The in vitro antiviral of miravirsen was evaluated against wild-type HCV genotype 1b replicon and HCV replicons constructed to contain key amino acid substitutions in NS3 protease (A156T, R155K), NS5B polymerase (S282T, M423I) and NS5A protein (Y93H) in transient transfection assays. […] Huh 7 cells were transfected with either the wild type or the mutant RNA constructs by electroporation. Luciferase activity was measured 72 hours after compound treatment and EC50 values determined from dose-response curves. Fold resistance was expressed as the ratio of the EC50 for mutant HCV replicon to the EC50 for wild-type HCV replicon. Results are expressed as the mean of two individual experiments. In an initial set of experiments, the standard protocol was modified by adding compounds 24 hours after electroporation. […] In a third experiment cells were pretreated with miravirsen for 24 hours before electroporation with wild-type RNA constructs to determine if preincubation could result in increased miravirsen antiviral activity.

[5] = tested on: HCV genotype 1b replicon NS3 R155K; format: cell-based; conditions: EC50 mutant / EC50 wild-type; mean of two experiments (individual values)
Protocol: as §3, §4

[6] = tested on: HCV genotype 1b replicon NS5A Y93H; format: cell-based; conditions: EC50 mutant / EC50 wild-type; mean of two experiments (individual values)
Protocol: as §3, §4

[7] = tested on: HCV genotype 1b replicon NS5B M423I; format: cell-based; conditions: EC50 mutant / EC50 wild-type; mean of two experiments (individual values)
Protocol: as §3, §4

[8] = tested on: HCV genotype 1b replicon NS5B S282T; format: cell-based; conditions: EC50 mutant / EC50 wild-type, mean of two experiments (individual values)
Protocol: as §3, §4

[9] = in combination with ribavirin, 95% confidence level
[10] = second drug in combination with miravirsen (SPC3649), 95% confidence interval, median (≧3 experiments) or individual values
[11] = second drug in combination with miravirsen (SPC3649), overall
[12] = second drug in combination with miravirsen (SPC3649), 95% confidence interval, median or individual values

With “5′-Ts.^ocsAs.^otsas.^mCs.^oTs.^oastsAs.^otsGs.^oas.^mCs.^oA.^o-3′ [SPC4729]” the “Efficacy, Synergy vol” value [1] was 0.00/−177.6 μM^2%, the overall antiviral interaction ([1]; in combination with ribavirin) was “antagonistic” and the “Efficacy, Antag Vol” value ([1]; in combination with ribavirin, 95% confidence level, individual values) was 0.00/−177.6 μM^2%. The “impact of combination on in vitro cytotoxicity” value ([2]; in combination with ribavirin) was “slight higher cytotoxicity”, the “Cytotoxicity, Antag Vol” value [2, 9] was −44.3 μM^2% and the “Cytotoxicity, Synergy vol” value [2, 9] was 0.00 μM^2%. For the same compound, the “rate of cell expansion” value [3] was “did not decrease the rate of cell expansion”.

For C[C@@]1(O)[C@H](O)[C@@H](CO)O[C@H]1n1ccc(N)nc1=O [2′-C-Methylcytidine, 2′-C-methylcytidine], the “interaction in individual assay replicates” value ([1]; in combination with SPC 3649, part of the replicates, listed as 2-methyl cytidine) was “positive interactions; also recorded: slightly antagonistic interaction”, the “Efficacy, Antagonism vol” value [1, 10] was −27.6 μM^2% and the “Efficacy, Synergy vol” value [1, 10] was 0 μM^2%. For the same compound, the “Efficacy, Synergy vol” value ([1]; second drug in combination with miravirsen (SPC3649), 95% confidence interval, median (≧3 experiments) or individual values, listed as 2-methyl cytidine) was 0.0 μM^2%, the Interaction [1, 11] was “Positive” and the Interaction ([1]; second drug in combination with miravirsen (SPC3649), overall, listed as 2-methyl cytidine) was “positive interaction”. For the same compound, the “Cytotoxicity, Antagonism vol” value [2, 12] was −0.67 μM^2%, the “Cytotoxicity, Synergy vol” value [2, 12] was 0 μM^2% and the “fold change in susceptibility, NS3 A156T” value [4] was 0.9 (1.0, 0.8) fold. The “fold change in susceptibility, NS3 R155K” value [5] was 0.8 (1.0, 0.6) fold, the “fold change in susceptibility, NS5A Y93H” value [6] was 1.0 (1.2, 0.8) fold and the “fold change in susceptibility, NS5B M423I” value [7] was 1.0 (0.9, 1.1) fold. The “fold change in susceptibility, NS5B S282T” value ([8]; listed as 2′Me-C) was 42.8 fold and 45.8 fold and the “fold change in susceptibility, NS5B S282T” value ([8]; listed as 2′Me—C) was 45.8 (49.3, 42.3) fold.

With COC(=O)N[C@H](C(=O)N1CCC[C@H]1c1nc(-c2ccc(-c3ccc(-c4c[nH]c([C@@H]5CCCN5C(=O)[C@@H](NC(=O)OC)C(C)C)n4)cc3)cc2)c[nH]1)C(C)C [BMS 790052, Dimethyl (2S,2′S)-1,1′-((2S,2′S)-2,2′-(4,4′-(biphenyl-4,4′-diyl)bis(1H-imidazole-4,2-diyl))bis(pyrrolidine-2,1-diyl))bis(3-methyl-1-oxobutane-2,1-diyl)dicarbamate] the “Efficacy, Antagonism vol” value [1, 10] was −25.5 μM^2% and −0.1 μM^2% and 0/−24.5; μM^2% and 18.46/−0.06 μM^2%, the Interaction [1, 11] was “Positive” and the “Cytotoxicity, Antagonism vol” value [2, 12] was −21.9 μM^2%. The “Cytotoxicity, Synergy vol” value [2, 12] was 0 μM^2% and the “fold change in susceptibility, NS5A Y93H” value [6] was 29.9 fold and 29.9 (32.7, 27.0) fold.

With NC(=O)c1ncn([C@@H]2O[C@H](CO)[C@@H](O)[C@H]2O)n1 [Ribavirin, 1-[(2R,3R,4S,5R)-3,4-dihydroxy-5-(hydroxymethyl)oxolan-2-yl]-1H-1,2,4-triazole-3-carboxamide] the Interaction [1] was “Positive”, the antagonism volume [1] was −292.6 μM^2% and the “interaction in individual assay replicates” value [1] was “additive interaction; also recorded: highly antagonistic interaction”.

In the case of CC(C)(C)C#Cc1cc(N(C(=O)[C@H]2CC[C@H](C)CC2)[C@H]2CC[C@H](O)CC2)c(C(=O)O)s1 [VX-222], the “Efficacy, Antagonism vol” value [1, 10] is reported as −34.4 μM^2% and −4.27 μM^2% and 4.81/−34.44; μM^2% and 0.82/−4.27 μM^2%, the Interaction [1, 11] is reported as “Positive” and the “Cytotoxicity, Antagonism vol” value [2, 12] is reported as −28.6 μM^2% and 0 μM^2%. For the same compound, the “Cytotoxicity, Synergy vol” value [2, 12] was 0 μM^2% and the “fold change in susceptibility, NS5B M423I” value [7] was 4.4 fold and 4.4 (3.6, 5.2) fold.
